The source of these data is ChEMBL document CHEMBL3132807, “Chemical motifs that redox cycle and their associated toxicity” (Medchemcomm, 2013).

Data set [1] in a line: Induction of ROS generation assessed as generation of H2O2 measured as oxidation of phenol red after 60 mins by phenol red assay. It is filed as physicochemical.
A further data set concerns THLE. Description: Cytotoxicity against human THLE cells assessed as ATP depletion by CellTitre-Glo assay. The format is functional, cell-based. Particulars: TDE = time-dependent effect.
Data set [2] can be described thus: Cytotoxicity against human THLE cells assessed as ATP depletion after 72 hrs by CellTitre-Glo assay. It is filed as functional, cell-based.
Data set [3] is described as follows: Cytotoxicity against human THLE cells assessed as ATP depletion after 4 hrs by CellTitre-Glo assay. It is filed as functional, cell-based.
Data set [4] is described as follows: Cytotoxicity against human THLE cells assessed as ATP depletion after 24 hrs by CellTitre-Glo assay. It is filed as functional, cell-based.

Molecules are shown by their SMILES. Some results are limits rather than exact numbers.

Take `CC(=O)N/C=C1/C(=O)NC(=O)C(C#N)=C1C`: the EC50 at 60 min in data set [1] came out at 250 µM.
For the compound `COc1cccc2c1C(=O)c1c(O)c3c(c(O)c1C2=O)C[C@@](O)(C(=O)CO)C[C@@H]3O[C@H]1C[C@H](N)[C@H](O)[C@H](C)O1` [DOXORUBICIN], the Activity entry in the data set on THLE was “tde”. The EC50 amounted to 0.53 µM in data set [2], 215 µM in data set [3] and 1.8 µM in data set [4]. Further, the half-maximal effective concentration (EC50) at 60 min in data set [1] came out at 179 µM.
Taken in the same sequence, the figures for `O=C1C=C(Cl)C(=O)c2ccccc21` were “tde”, 37.4 µM, 21.1 µM, 13.8 µM and 2.5 µM.
Taken in the same sequence, the figures for `Cn1nc(/C=C/c2ccccc2)nc2c(=O)n(C)c(=O)nc1-2` were “tde”, 1.7 µM, 1.3 µM, 1.2 µM and 1 µM.
The corresponding values for `CCOc1ccc2nc3c(=O)n(C)c(=O)nc-3sc2c1` are “tde”, 68 µM, 46 µM, 79 µM and 70 µM.
On to `Cc1cc2nc3c(=O)[nH]c(=O)nc-3n(C[C@H](O)[C@H](O)[C@H](O)CO)c2cc1C` [RIBOFLAVIN], for which, in the data set with THLE, the Activity entry is “tde”. The EC50 in data set [2], in data set [3] and in data set [4] was > 300 µM in each case. For the same compound, in data set [1], the EC50 at 60 min turned out to be 129 µM.
For `O=c1[nH]c(=O)c2nc3ccccc3nc2[nH]1` [ALLOXAZINE], the Activity result in the data set on THLE is “tde”. Moreover, the EC50 in data set [2], in data set [3] and in data set [4] was > 300 µM each time.
On to `Cn1nc(/C=C\c2ccccc2)nc2c(=O)n(C)c(=O)nc1-2`, for which the Activity entry in the data set with THLE was “tde”. Moreover, the figures for the EC50 in data set [2], in data set [3] and in data set [4] were 6.8 µM, 4.8 µM and 5.9 µM, respectively. For the same compound, the half-maximal effective concentration (EC50) at 60 min in data set [1] was 1 µM.
For `CCn1cc(C(=O)O)c(=O)c2cc(F)c(N3CCNCC3)cc21` [NORFLOXACIN], the Activity entry in the data set with THLE is “tde”. For the same compound, the EC50 in data set [2], in data set [3] and in data set [4] was > 300 µM throughout. Besides, the EC50 at 60 min in data set [1] was > 1000 µM.
In the case of `O=C1NC(=O)/C(=C\c2ccc(Cl)cc2Cl)C2=C1CCCC2`, the EC50 at 60 min in data set [1] was 236 µM.
Take `Cn1nc(-c2ccccc2)cc2c(=O)n(C)c(=O)nc1-2`: the Activity entry with THLE was “tde”. The EC50 in data set [2], in data set [3] and in data set [4] was > 300 µM each time. Also, the EC50 at 60 min in data set [1] was > 1000 µM.
Turning to `O=C1NC(=O)/C(=C\c2ccc(F)cc2)C2=C1CCCC2`, the EC50 at 60 min in data set [1] came to 60 µM.
As to `Cn1ncnc2c(=O)n(C)c(=O)nc1-2`, the Activity result with THLE is “tde”. Further, the EC50 in data set [2] stood at 3.2 µM; in data set [3] it was 2.7 µM; in data set [4] it was 2.1 µM. Also, the EC50 at 60 min in data set [1] was 1 µM.
Taken in the same sequence, the figures for `CCn1cc(C(=O)O)c(=O)c2ccc(C)nc21` [NALIDIXIC ACID] were “tde”, > 300 µM, > 300 µM, > 300 µM and > 1000 µM.
The corresponding values for `O=C1NC(=O)/C(=C\c2ccccc2)C2=C1CCCC2` [TESIMIDE] are “tde”, > 300 µM, > 300 µM, > 300 µM and 26 µM.
As to `O=C1NC(=O)/C(=C\c2ccc(C(=O)O)cc2)C2=C1CCCC2`, the EC50 at 60 min in data set [1] is 53 µM.
Still for that read-out and setting: the value for `O=C1NC(=O)/C(=C\c2ccco2)C2=C1CCCC2` was 18 µM.
`O=c1[nH]c(=O)c2nccnc2[nH]1`: the Activity result in the data set with THLE is “tde”. The concentration for a half-maximal effect (EC50) in data set [2], in data set [3] and in data set [4] was > 300 µM in each case. For the same compound, the EC50 at 60 min in data set [1] was determined as 713 µM.
Turning to `Cc1c2cc3c(ccc4ccccc43)oc-2nc(=O)c1C#N`, in the data set on THLE, the Activity entry is “tde”. Also, the EC50 in data set [2], in data set [3] and in data set [4] was > 300 µM each time. Besides, the EC50 at 60 min in data set [1] stood at 11 µM.
As to `COc1cc(/C=C2\C(=O)NC(=O)C3=C2CCCC3)cc(OC)c1OC`, in data set [1], the concentration for a half-maximal effect (EC50) at 60 min was 0.5 µM.
Take `Cn1nc(-c2cccs2)nc2c(=O)n(C)c(=O)nc1-2`: the Activity entry in the data set with THLE is “tde”. Also, the EC50 amounted to 3.1 µM in data set [2], 2.4 µM in data set [3] and 2.9 µM in data set [4]. Moreover, the 50% effective concentration (EC50) at 60 min in data set [1] amounted to 2 µM.
Taken in the same sequence, the figures for `Nc1ccc2nc3c(=O)[nH]c(=O)nc-3[nH]c2c1` were “tde”, 245 µM, 264 µM, 250 µM and 110 µM.
Take `Cn1nc(-c2cccnc2)nc2c(=O)n(C)c(=O)nc1-2`: the Activity entry with THLE is “tde”. Moreover, the EC50 in data set [2] came out at 2 µM; in data set [3], 5.2 µM; in data set [4], 2.1 µM. For the same compound, the EC50 at 60 min in data set [1] was 1 µM.
In the case of `NC(=O)N1C(=O)/C(=C(\O)c2ccc(F)s2)c2cc(F)c(Cl)cc21`, the Activity result in the data set with THLE is “tde”. In addition, the EC50 was 108 µM in data set [2], > 300 µM in data set [3] and 175 µM in data set [4]. Moreover, the EC50 at 60 min in data set [1] amounted to 833 µM.
For `O=c1nc2[nH]c3ccccc3nc-2c(=O)[nH]1` [ALLOXAZINE], the EC50 at 60 min in data set [1] turned out to be 226 µM.
As to `CCCc1nc2c(=O)n(C)c(=O)nc-2n(C)n1`, the Activity result with THLE is “tde”. In addition, the values for the EC50 in data set [2], in data set [3] and in data set [4] were 13 µM, 16.5 µM and 9.1 µM, respectively. In data set [1], the EC50 at 60 min came to 1 µM.
With `O=C1NC(=O)/C(=C\c2ccc(O)cc2)C2=C1CCCC2`, in data set [1], the EC50 at 60 min is 8.6 µM.
Still for that read-out and setting: the value for `CCCCCc1ccc(/C=C2\C(=O)NC(=O)C3=C2CCCC3)cc1` was 9.2 µM.
On to `Cn1nc(-c2ccncc2)nc2c(=O)n(C)c(=O)nc1-2`, for which, in the data set with THLE, the Activity result was “tde”. The figures for the EC50 in data set [2], in data set [3] and in data set [4] were 3.1 µM, 11.7 µM and 5.8 µM, respectively. Moreover, the EC50 at 60 min in data set [1] was 1 µM.
Taken in the same sequence, the figures for `Cn1nc(-c2ccc([N+](=O)[O-])cc2)nc2c(=O)n(C)c(=O)nc1-2` were “tde”, 3.2 µM, 5.2 µM, 2.9 µM and 1 µM.
The corresponding values for `Cn1c(=O)nc2sc3ccccc3nc-2c1=O` are “tde”, 8.2 µM, 10.6 µM, 9.9 µM and 151 µM.
The corresponding values for `COc1ccc(-c2nc3c(=O)n(C)c(=O)nc-3n(C)n2)cc1` are “tde”, 7.2 µM, 9.6 µM, 6 µM and 2 µM.
On to `O=C1NC(=O)/C(=C\c2ccc(C3CCCCC3)cc2)C2=C1CCCC2`, for which, in data set [1], the concentration for a half-maximal effect (EC50) at 60 min came out at 121 µM.
On the same count and under the same terms, the value for `O=C1NC(=O)/C(=C\c2ccncc2)C2=C1CCCC2` was 95 µM.
As for `NC(=O)N1C(=O)/C(=C(\O)c2ccc(Cl)s2)c2cc(Cl)ccc21`, the Activity entry in the data set with THLE was “tde”. The EC50 in data set [2] is 117 µM; in data set [3] it was > 300 µM; in data set [4], 253 µM. For the same compound, the half-maximal effective concentration (EC50) at 60 min in data set [1] came out at 667 µM.
The corresponding values for `O=C1NC(=O)/C(=C\c2ccccc2)C2=C1CCC2` are “tde”, > 300 µM, > 300 µM, > 300 µM and 233 µM.
Taken in the same sequence, the figures for `C[n+]1ccc(-c2cc[n+](C)cc2)cc1` [PARAQUAT] were “tde”, > 300 µM, > 300 µM, > 300 µM and > 1000 µM.
As for `CC1=C(C)C(=O)c2ccccc2C1=O`, in the data set on THLE, the Activity result was “tde”. The EC50 in data set [2] worked out at 21.1 µM; in data set [3] it was 40.9 µM; in data set [4], 23.1 µM. Also, in data set [1], the EC50 at 60 min was determined as 110 µM.
Take `O=C1NC(=O)/C(=C\c2ccc(Cl)cc2)C2=C1CCCC2`: in data set [1], the EC50 at 60 min is 0.5 µM.
For the compound `CC1=CC(=O)c2ccccc2C1=O` [MENADIONE], the Activity entry in the data set on THLE was “tde”. In addition, the EC50 came to 17.7 µM in data set [2], 94 µM in data set [3] and 27.5 µM in data set [4]. For the same compound, the EC50 at 60 min in data set [1] amounted to 29 µM.
On to `Cn1nc(-c2ccccc2)nc2c(=O)n(C)c(=O)nc1-2`, for which the Activity entry in the data set with THLE was “tde”. Also, the EC50 in data set [2] stood at 7.4 µM; in data set [3], 9 µM; in data set [4] it was 4.5 µM. Also, the EC50 at 60 min in data set [1] is 2 µM.
Turning to `Cc1cc(C)n(C)c2cccc(=O)c1-2`, the Activity entry in the data set on THLE is “tde”. Besides, the EC50 in data set [2], in data set [3] and in data set [4] was > 300 µM each time. Moreover, the EC50 at 60 min in data set [1] worked out at 33 µM.
Regarding `C[n+]1cc2c3c(ccc2c2ccc4cc5c(cc4c21)OCO5)OCO3` [SANGUINARIUM], the Activity result with THLE is “tde”. Moreover, the EC50 in data set [2] came to 0.93 µM; in data set [3] it was 1 µM; in data set [4] it was 0.89 µM. In addition, in data set [1], the EC50 at 60 min was determined as 513 µM.

For orientation: EC50 means the concentration at which the effect is half-maximal.
